The values that follow come from PubChem BioAssay (NCI).

Among the test systems are A498 renal; HOP-62 NSCLC; HT29 colon; IGROV1 ovarian; MOLT-4 leukemia; NCI-H226 lung; OVCAR-3 ovarian; OVCAR-4 ovarian; OVCAR-5 ovarian; SF-268 CNS; SF-539 CNS; SK-MEL-28 melanoma; SK-OV-3 ovarian; SR leukemia; TK-10 renal; U251 CNS; RXF 393 renal; DU-145 prostate; MDA-MB-435.
Common to all, as to assay: NCI-60 cell line screen, 48 h

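Method: 48-hour compound exposure of cells in 96-well plates, five concentrations, linear interpolation of endpoints. TGI: concentration producing complete growth inhibition.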

With `O=C(O)COc1ccc(C(=O)/C(SS/C(C(=O)c2ccc(OCC(=O)O)c(Cl)c2Cl)=C2\C=C(c3ccccc3Cl)SS2)=C2/C=C(c3ccccc3Cl)SS2)c(Cl)c1Cl`, the TGI is 88.7 µM in the assay on A498 renal; above 100 µM in the assay on HOP-62 NSCLC; above 31.6 µM in the assay with HT29 colon; 63.2 µM in the assay on IGROV1 ovarian; 53.6 µM with MOLT-4 leukemia; 47.3 µM in the assay with NCI-H226 lung. Besides, the TGI in the assay with OVCAR-3 ovarian was 53 µM; in the assay on OVCAR-4 ovarian, 57.1 µM; with OVCAR-5 ovarian it was above 100 µM; in the assay on SF-268 CNS, above 88.3 µM; with SF-539 CNS, 17.2 µM; in the assay with SK-MEL-28 melanoma, above 100 µM. Besides, the TGI is above 100 µM with SK-OV-3 ovarian, 6.91 µM with SR leukemia, above 95.7 µM with TK-10 renal and 36.5 µM in the assay with U251 CNS.
Consider `C=C(C)CC(C)(c1cc2ccccc2n1C)N1CCOCC1` (configuration not stated), for which the TGI with HOP-62 NSCLC, with HT29 colon, in the assay with IGROV1 ovarian, in the assay with MOLT-4 leukemia, in the assay on NCI-H226 lung and with OVCAR-3 ovarian was above 100 µM throughout. The TGI with OVCAR-4 ovarian, with RXF 393 renal, in the assay with SF-268 CNS, in the assay on SF-539 CNS, in the assay on SK-MEL-28 melanoma and in the assay on SK-OV-3 ovarian was above 100 µM in each case. Besides, the TGI in the assay on SR leukemia and with TK-10 renal was above 100 µM throughout.
On to `C=C(CO)[C@H]1Oc2ccc(C(C)=O)cc2[C@@H]1O`, for which the TGI with A498 renal, in the assay on DU-145 prostate, in the assay with HOP-62 NSCLC, with HT29 colon, in the assay on IGROV1 ovarian and with MDA-MB-435 was above 100 µM in each case. In addition, the TGI in the assay on MOLT-4 leukemia, in the assay with NCI-H226 lung, with OVCAR-3 ovarian, with OVCAR-4 ovarian, in the assay on OVCAR-5 ovarian and in the assay on RXF 393 renal was above 100 µM in each case. The TGI in the assay on SF-268 CNS, in the assay on SF-539 CNS, in the assay on SK-MEL-28 melanoma, in the assay on SK-OV-3 ovarian, in the assay on SR leukemia and in the assay with TK-10 renal was above 100 µM each time. This molecule also returned a TGI in the assay with U251 CNS above 100 µM.
Consider `CNc1ncnc2c1cnn2CCCCO`, for which the TGI in the assay on A498 renal, with DU-145 prostate, in the assay on HOP-62 NSCLC, in the assay with HT29 colon, with IGROV1 ovarian and in the assay on MDA-MB-435 was above 100 µM in each case. The TGI with MOLT-4 leukemia, with NCI-H226 lung, in the assay with OVCAR-3 ovarian, in the assay on OVCAR-4 ovarian, in the assay on OVCAR-5 ovarian and in the assay on RXF 393 renal was above 100 µM in each case. Moreover, the TGI with SF-268 CNS, with SF-539 CNS, in the assay on SK-MEL-28 melanoma, in the assay on SK-OV-3 ovarian, in the assay with SR leukemia and with TK-10 renal was above 100 µM in each case. The TGI in the assay with U251 CNS was above 100 µM.
Take `Nc1nc2ncn(CC(O)COC(=O)c3ccccc3)c2c(=O)[nH]1` (configuration not stated): the TGI in the assay with A498 renal, in the assay on HOP-62 NSCLC, with HT29 colon, in the assay with IGROV1 ovarian, in the assay with NCI-H226 lung and with OVCAR-3 ovarian was above 100 µM throughout. In addition, the TGI in the assay with OVCAR-4 ovarian, in the assay on OVCAR-5 ovarian, with RXF 393 renal, in the assay on SF-268 CNS, with SF-539 CNS and with SK-MEL-28 melanoma was above 100 µM in each case. In addition, the TGI with SK-OV-3 ovarian, with SR leukemia, in the assay on TK-10 renal and with U251 CNS was above 100 µM each time.
`CCSc1nnc(-c2ccccc2)nc1Cc1ccc(OC)cc1`: the TGI with A498 renal, with HOP-62 NSCLC, in the assay on HT29 colon, with IGROV1 ovarian, in the assay on MOLT-4 leukemia and with NCI-H226 lung was above 100 µM each time. Further, the TGI with OVCAR-3 ovarian, in the assay with OVCAR-4 ovarian, with RXF 393 renal, in the assay on SF-268 CNS, with SF-539 CNS and with SK-MEL-28 melanoma was above 100 µM throughout. Also, the TGI with SK-OV-3 ovarian, in the assay on SR leukemia, in the assay with TK-10 renal and in the assay with U251 CNS was above 100 µM in each case.
For the molecule `COC(=O)/C(=N/NC(C)(C)C)C(C(=O)OC)C(=O)C(=O)Nc1nc2ccc([N+](=O)[O-])cc2s1` (configuration not stated), the TGI with A498 renal, in the assay with HOP-62 NSCLC, with HT29 colon, in the assay with IGROV1 ovarian, with MOLT-4 leukemia and with NCI-H226 lung was above 100 µM in each case. Also, the TGI in the assay on OVCAR-3 ovarian, with OVCAR-4 ovarian, with OVCAR-5 ovarian, with SF-268 CNS, in the assay with SF-539 CNS and in the assay with SK-MEL-28 melanoma was above 100 µM throughout. The TGI in the assay with SK-OV-3 ovarian, in the assay with SR leukemia, with TK-10 renal and with U251 CNS was above 100 µM each time.
As to `COc1c(C)c(O)c2c(c1C)OC(c1ccccc1)CC2=O` (configuration not stated), the TGI in the assay on A498 renal, in the assay with HOP-62 NSCLC, in the assay with HT29 colon, in the assay with IGROV1 ovarian, in the assay on MOLT-4 leukemia and in the assay with NCI-H226 lung was above 100 µM each time. Moreover, the TGI in the assay with OVCAR-3 ovarian, in the assay with OVCAR-4 ovarian, in the assay on OVCAR-5 ovarian, in the assay with SF-268 CNS, with SF-539 CNS and in the assay on SK-MEL-28 melanoma was above 100 µM each time. The TGI in the assay on SK-OV-3 ovarian was above 100 µM; in the assay on SR leukemia, 75.5 µM; with TK-10 renal, above 100 µM; in the assay on U251 CNS, above 100 µM.
